# Experimental data as given in PubChem BioAssay (NCI).
#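 Compound exposure: 48 hours, 5 concentrations, 96-well plates. Here, GI50 denotes the concentration required for 50% inhibition of growth. TGI: total growth inhibition.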 Calls of active or inactive are those of the source. No stated cut-off is given here; in the data, active means GI50 below about 0.43 µM; inactive means the rest.
# Experiments:
# Test in all cases: inhibition of tumour cell growth, NCI panel, 48 h
# M14 melanoma = system: M14 melanoma
# SF-295 CNS = system: SF-295 CNS
# RXF-631 renal = system: RXF-631 renal
# K-562 leukemia = system: K-562 leukemia
# SN12C renal = system: SN12C renal
# A498 renal = system: A498 renal
# A549 NSCLC = system: A549 NSCLC
# HS 578T breast = system: HS 578T breast
# SK-MEL-28 melanoma = system: SK-MEL-28 melanoma
# SR leukemia = system: SR leukemia
# SK-OV-3 ovarian = system: SK-OV-3 ovarian
# DLD-1 colon = system: DLD-1 colon
# MDA-MB-435 = system: MDA-MB-435
# CAKI-1 renal = system: CAKI-1 renal
# XF 498 CNS = system: XF 498 CNS
# OVCAR-3 ovarian = system: OVCAR-3 ovarian
# NCI-H226 lung = system: NCI-H226 lung
# PC-3 prostate = system: PC-3 prostate
structure (smiles),measurement,setting,value
C[CH2][Sn]([CH2]C)([O]C(=O)c1ccccc1F)[O]C(=O)c1ccccc1F,GI50,M14 melanoma,30.4 µM
same,TGI,M14 melanoma,56.8 µM
same,GI50,SF-295 CNS,> 62 µM
same,TGI,SF-295 CNS,> 84.6 µM
same,GI50,RXF-631 renal,18.6 µM
same,TGI,RXF-631 renal,34.1 µM
same,GI50,K-562 leukemia,16.2 µM
same,TGI,K-562 leukemia,55.1 µM
same,GI50,SN12C renal,> 75 µM
same,TGI,SN12C renal,> 100 µM
same,GI50,A498 renal,18.5 µM
same,TGI,A498 renal,35.5 µM
same,GI50,A549 NSCLC,> 100 µM
same,TGI,A549 NSCLC,> 100 µM
same,GI50,HS 578T breast,42.2 µM
same,TGI,HS 578T breast,> 100 µM
same,GI50,SK-MEL-28 melanoma,29.1 µM
same,TGI,SK-MEL-28 melanoma,47.6 µM
same,GI50,SR leukemia,22.6 µM
same,TGI,SR leukemia,> 100 µM
same,GI50,SK-OV-3 ovarian,> 100 µM
same,TGI,SK-OV-3 ovarian,> 100 µM
same,GI50,DLD-1 colon,29.8 µM
same,TGI,DLD-1 colon,> 91.3 µM
same,GI50,MDA-MB-435,> 100 µM
same,TGI,MDA-MB-435,> 100 µM
same,GI50,CAKI-1 renal,11.9 µM
same,TGI,CAKI-1 renal,19.6 µM
same,GI50,XF 498 CNS,15.9 µM
same,TGI,XF 498 CNS,30.6 µM
same,GI50,OVCAR-3 ovarian,> 100 µM
same,TGI,OVCAR-3 ovarian,> 100 µM
same,GI50,NCI-H226 lung,14.7 µM
same,TGI,NCI-H226 lung,22.1 µM
same,GI50,PC-3 prostate,> 100 µM
same,TGI,PC-3 prostate,> 100 µM
C=CC(=O)C#CC#CC/C=C\CCCCCCC,TGI,M14 melanoma,> 20.6 µM
same,outcome,M14 melanoma,inactive
same,TGI,SF-295 CNS,> 20.6 µM
same,outcome,SF-295 CNS,inactive
same,TGI,K-562 leukemia,> 20.6 µM
same,outcome,K-562 leukemia,inactive
same,TGI,SN12C renal,> 20.6 µM
same,outcome,SN12C renal,inactive
same,TGI,A498 renal,> 20.6 µM
same,outcome,A498 renal,inactive
same,TGI,A549 NSCLC,> 20.6 µM
same,outcome,A549 NSCLC,inactive
same,TGI,HS 578T breast,> 20.6 µM
same,outcome,HS 578T breast,inactive
same,TGI,SK-MEL-28 melanoma,> 20.6 µM
same,outcome,SK-MEL-28 melanoma,inactive
same,TGI,SR leukemia,14.2 µM
same,outcome,SR leukemia,inactive
same,TGI,SK-OV-3 ovarian,> 20.6 µM
same,outcome,SK-OV-3 ovarian,inactive
same,TGI,DLD-1 colon,> 20.6 µM
same,TGI,MDA-MB-435,> 20.6 µM
same,outcome,MDA-MB-435,inactive
same,TGI,CAKI-1 renal,> 20.6 µM
same,outcome,CAKI-1 renal,inactive
same,TGI,OVCAR-3 ovarian,> 20.6 µM
same,outcome,OVCAR-3 ovarian,inactive
same,TGI,NCI-H226 lung,> 20.6 µM
same,outcome,NCI-H226 lung,inactive
same,outcome,PC-3 prostate,inactive
